Source: publication PMC2359919, “Molecular targeting of retinoic acid metabolism in neuroblastoma: the role of the CYP26 inhibitor R116010 in vitro and in vivo” (British Journal of Cancer, 2007)

Key:
CYP26 = tested on: CYP26; set-up: method as in Njar et al, 2006; settings: ref Njar et al, 2006; cited from earlier work
RA metabolism = experiment: Effect of R116010 on retinoid concentrations (plasma, liver, tumour) in an SH-SY5Y xenograft model, LC/MS; assay type: in vivo, CD-1 nude mice; settings: ATRA-treated mice (100 mg kg^−1) without or with R116010; 6 h
Description: (§1) All in vivo experiments were approved by the relevant institutional animal welfare committees, and performed according to national law. Female athymic nude mice (CD-1 nu/nu, Charles River) used for antitumour studies were maintained and handled in isolators, under specific pathogen-free conditions, at 24°C with a 12 h light, 12 h dark cycle. Tumours were generated by implantation of SH-SY5Y cells subcutaneously (s.c.) into one flank of CD-1 nude mice (1 × 10^7 cells per animal).
(§2) Treatments began when the tumours were between 7 and 10 mm in length and breadth. Retinoids and R116010 were initially dissolved in DMSO before 10- or 20-fold dilutions in PBS, respectively. For pharmacokinetic studies, the animals were dosed with ATRA or 13cisRA (each 100 mg kg^−1) orally for 0.5, 2 and 6 h. For metabolism studies, animals were treated with R116010 orally at doses of 1.25 or 2.5 mg kg^−1 either immediately before the retinoid being studied, or up to three times (over 1–2 days) before dosing with the retinoid. At termination of experiments, animals were bled under terminal anaesthesia then killed by cervical dislocation. Plasma was immediately removed from the blood by centrifugation at 1000 g for 5 min and snap-frozen in liquid nitrogen in amber Eppendorfs. Tumour and liver samples were removed and snap-frozen, wrapped in foil, in liquid nitrogen.
(§3) Cell pellets obtained from retinoid incubations were re-suspended in 2 ml cell culture medium and disrupted by passing the samples several times through a syringe and hypodermic needle (25G × 1 inches, 0.5 mm × 25 mm; Terumo, Somerset, NJ, USA). Tumour and liver tissues were re-suspended in PBS and homogenised (T25 homogeniser, IKA Laboratories, Staufen, Germany). Retinoids were extracted as described previously ([Veal et al, 2002]; [Armstrong et al, 2005b]). Samples were reconstituted in 200 μl mobile phase A (n-hexane:dichloromethane:propan-2-ol, 400 : 1 : 0.27) and analysed by normal-phase HPLC as described previously ([Veal et al, 2002]). For LC/MS analysis, samples were reconstituted in 200 μl mobile phase A (50% acetonitrile, 50% (0.2%) acetic acid, v v^−1).
(§4) Resolution of retinoids was performed with a Luna C18(2) column (3 μm, 50 mm × 2 mm) using a Perkin Elmer LC (Beaconsfield, UK) system, consisting of a vacuum degasser, two series 200 pumps, a thermostatically controlled series 200 autosampler and a Waters 2487 UV absorbance detector. Retinoic isomers and metabolites were separated by gradient reversed-phase chromatography. An injection volume of 20 μl with a flow rate of 0.2 ml min^−1 was used with mobile phase A (50% acetonitrile, 50% (0.2%) acetic acid, v v^−1) and mobile phase B (acetonitrile, 0.1% acetic acid, v v^−1). Linear gradients were employed between the specified times as follows: 0, 100% A; 5 min, 100% A; 15 min, 100% B; 20 min, 100% B; 23 min, 100% A; 35 min, 100% A. An Applied Biosystems (Warrington, UK) API-2000 LC/MS/MS triple Q (quadrupole) mass spectrometer with electrospray ionisation source, controlled by Analyst software, was operated in single quadrupole negative mode for the detection of compounds.

[1] = Pharmacokinetic analysis of RA in an SH-SY5Y xenograft model (retinoid concentrations in plasma, liver, tumour by LC/MS); assay type: in vivo, CD-1 nude mice; settings: for % Total retinoids, tumour, 0.5 h / Tumour concentration, 0.5 h / % Total retinoids, tumour, 2 h / Tumour concentration, 2 h / % Total retinoids, tumour, 6 h / Tumour concentration, 6 h: SH-SY5Y tumour; for % Total retinoids, tumour, 0.5 h / Tumour concentration, 0.5 h / % Total retinoids, tumour, 2 h / Tumour concentration, 2 h / % Total retinoids, tumour, 6 h / Tumour concentration, 6 h / % Total retinoids, liver, 0.5 h / Liver concentration, 0.5 h / % Total retinoids, liver, 2 h / Liver concentration, 2 h / % Total retinoids, liver, 6 h / Liver concentration, 6 h / % Total retinoids, plasma, 0.5 h / Plasma concentration, 0.5 h / % Total retinoids, plasma, 2 h / Plasma concentration, 2 h / % Total retinoids, plasma, 6 h / Plasma concentration, 6 h: label = retinoid measured; for Plasma % of total retinoids at all time points: 0.5, 2 and 6 h
Description: as §1, §2, §3, §4

[2] = after 13cisRA 100 mg kg^−1 oral

Structure (SMILES) | % Total retinoids, tumour, 0.5 h [1, 2] [%] | Tumour concentration, 0.5 h [1, 2] [µg/g] | % Total retinoids, tumour, 2 h [1, 2] [%] | Tumour concentration, 2 h [1, 2] [µg/g] | % Total retinoids, tumour, 6 h [1, 2] [%] | Tumour concentration, 6 h [1, 2] [µg/g] | % Total retinoids, liver, 0.5 h [1, 2] [%] | Liver concentration, 0.5 h [1, 2] [µg/g] | % Total retinoids, liver, 2 h [1, 2] [%] | Liver concentration, 2 h [1, 2] [µg/g] | % Total retinoids, liver, 6 h [1, 2] [%] | Liver concentration, 6 h [1, 2] [µg/g] | % Total retinoids, plasma, 0.5 h [1, 2] [%] | Plasma concentration, 0.5 h [1, 2] [µM] | % Total retinoids, plasma, 2 h [1, 2] [%] | Plasma concentration, 2 h [1, 2] [µM] | % Total retinoids, plasma, 6 h [1, 2] [%] | Plasma concentration, 6 h [1, 2] [µM] | % Total retinoids, tumour, 0.5 h ([1]; after ATRA 100 mg kg^−1 oral) [%] | Tumour concentration, 0.5 h ([1]; after ATRA 100 mg kg^−1 oral) [µg/g] | further results
Clc1cccc(C(c2ccc3[nH]cnc3c2)n2ccnc2)c1 (stereo not drawn) [liarozole] |  |  |  |  |  |  |  |  |  |  |  |  |  |  |  |  |  |  |  |  | Ability to inhibit CYP26 (CYP26): only moderate ability to inhibit CYP26
CC1=C(/C=C/C(C)=C/C=C/C(C)=C\C(=O)O)C(C)(C)CCC1=O [13cis-4-oxoRA, 13-cis-4-oxo-RA] | 3 | 0.06 ± 0.02 | 2 | 0.04 ± 0.0 | 19 | 0.11 ± 0.05 | 18 | 0.89 ± 0.22 | 33 | 1.33 ± 0.08 | 69 | 3.79 ± 0.99 | 2 | 0.27 ± 0.11 | 3 | 0.63 ± 0.10 | 20 | 1.22 ± 0.24 | 0 | 0 | Plasma 13cis-4-oxo-RA (RA metabolism): not detectable; Liver concentration, 6 h ([1]; after 13cisRA 100 mg kg^−1 oral, listed as 13cis-4-oxo-RA): 3.79 µg/g; Plasma % of total retinoids at all time points ([1]; after ATRA 100 mg kg^−1): < 10%; % Total retinoids, tumour, 2 h ([1]; after ATRA 100 mg kg^−1 oral): 0%; Tumour concentration, 2 h ([1]; after ATRA 100 mg kg^−1 oral): 0 µg/g; % Total retinoids, tumour, 6 h ([1]; after ATRA 100 mg kg^−1 oral): 0%; Tumour concentration, 6 h ([1]; after ATRA 100 mg kg^−1 oral): 0 µg/g; % Total retinoids, liver, 0.5 h ([1]; after ATRA 100 mg kg^−1 oral): 1%; Liver concentration, 0.5 h ([1]; after ATRA 100 mg kg^−1 oral): 0.06 ± 0.03 µg/g; % Total retinoids, liver, 2 h ([1]; after ATRA 100 mg kg^−1 oral): 1%; Liver concentration, 2 h ([1]; after ATRA 100 mg kg^−1 oral): 0.09 ± 0.02 µg/g; % Total retinoids, liver, 6 h ([1]; after ATRA 100 mg kg^−1 oral): 4%; Liver concentration, 6 h ([1]; after ATRA 100 mg kg^−1 oral): 0.22 ± 0.09 µg/g; % Total retinoids, plasma, 0.5 h ([1]; after ATRA 100 mg kg^−1 oral): <1%; Plasma concentration, 0.5 h ([1]; after ATRA 100 mg kg^−1 oral): 0.03 ± 0.01 µM; % Total retinoids, plasma, 2 h ([1]; after ATRA 100 mg kg^−1 oral): <1%; Plasma concentration, 2 h ([1]; after ATRA 100 mg kg^−1 oral): 0.02 ± 0.01 µM; % Total retinoids, plasma, 6 h ([1]; after ATRA 100 mg kg^−1 oral): <1%; Plasma concentration, 6 h ([1]; after ATRA 100 mg kg^−1 oral): 0.05 ± 0.03 µM
CC1=C(/C=C/C(C)=C/C=C/C(C)=C/C(=O)O)C(C)(C)CCC1=O [AT-4-oxoRA, all-trans-4-oxo-RA] | <1 | 0.02 ± 0.0 | 3 | 0.09 ± 0.04 | 16 | 0.09 ± 0.02 | 5 | 0.26 ± 0.10 | 8 | 0.30 ± 0.09 | 12 | 0.67 ± 0.25 | 0 | 0 | <1 | 0.13 ± 0.04 | 0 | 0 | 8 | 0.21 ± 0.09 | Plasma % of total retinoids at all time points ([1]; after 13cisRA 100 mg kg^−1): < 10%; % Total retinoids, tumour, 2 h ([1]; after ATRA 100 mg kg^−1 oral): 2%; Tumour concentration, 2 h ([1]; after ATRA 100 mg kg^−1 oral): 0.24 ± 0.06 µg/g; % Total retinoids, tumour, 6 h ([1]; after ATRA 100 mg kg^−1 oral): 17%; Tumour concentration, 6 h ([1]; after ATRA 100 mg kg^−1 oral): 0.79 ± 0.38 µg/g; % Total retinoids, liver, 0.5 h ([1]; after ATRA 100 mg kg^−1 oral): 11%; Liver concentration, 0.5 h ([1]; after ATRA 100 mg kg^−1 oral): 0.44 ± 0.12 µg/g; % Total retinoids, liver, 2 h ([1]; after ATRA 100 mg kg^−1 oral): 13%; Liver concentration, 2 h ([1]; after ATRA 100 mg kg^−1 oral): 1.07 ± 0.05 µg/g; % Total retinoids, liver, 6 h ([1]; after ATRA 100 mg kg^−1 oral): 45%; Liver concentration, 6 h ([1]; after ATRA 100 mg kg^−1 oral): 2.39 ± 0.72 µg/g; Liver concentration, 6 h ([1]; after ATRA 100 mg kg^−1 oral, listed as AT-4-oxo-RA): 2.39 µg/g; % Total retinoids, plasma, 0.5 h ([1]; after ATRA 100 mg kg^−1 oral): 4%; Plasma concentration, 0.5 h ([1]; after ATRA 100 mg kg^−1 oral): 0.6 ± 0.4 µM; % Total retinoids, plasma, 2 h ([1]; after ATRA 100 mg kg^−1 oral): 6%; Plasma concentration, 2 h ([1]; after ATRA 100 mg kg^−1 oral): 1.7 ± 0.3 µM; % Total retinoids, plasma, 6 h ([1]; after ATRA 100 mg kg^−1 oral): 22%; Plasma concentration, 6 h ([1]; after ATRA 100 mg kg^−1 oral): 4.0 ± 2.4 µM
